The results in this text go back to patent publication US11634417B2 (Array BioPharma Inc., priority 2019, dated 2023).

The target in one assay is T1, full-length SHP2 (Homo sapiens, UniProt Q06124).
T1 construct: 1 nM full-length SHP2 (His6-tagged SHP2(2-527), recombinantly expressed in E. coli and purified in-house); His6; made in house; host or cells: E. coli
T1 sequence (Q06124 2-527): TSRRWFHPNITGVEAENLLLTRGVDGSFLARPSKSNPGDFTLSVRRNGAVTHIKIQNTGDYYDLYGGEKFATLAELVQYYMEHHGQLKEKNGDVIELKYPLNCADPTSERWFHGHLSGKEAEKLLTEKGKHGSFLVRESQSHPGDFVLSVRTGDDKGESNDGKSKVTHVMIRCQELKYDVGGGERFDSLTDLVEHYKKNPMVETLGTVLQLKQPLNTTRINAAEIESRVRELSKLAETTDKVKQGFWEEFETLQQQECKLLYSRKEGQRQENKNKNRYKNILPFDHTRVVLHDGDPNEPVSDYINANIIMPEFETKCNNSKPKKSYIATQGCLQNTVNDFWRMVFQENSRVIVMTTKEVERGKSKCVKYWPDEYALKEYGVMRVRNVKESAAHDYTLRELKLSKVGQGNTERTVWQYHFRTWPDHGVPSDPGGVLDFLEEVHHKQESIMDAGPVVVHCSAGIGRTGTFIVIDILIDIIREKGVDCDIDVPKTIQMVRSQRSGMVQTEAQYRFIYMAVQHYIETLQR
As to the kind of experiment: SHP2 enzymatic assay (fluorescence intensity kinetic assay, DiFMUP hydrolysis). The assay is classed as biochemical. The following applies: 1 nM His6-tagged SHP2(2-527), 1 μM activating peptide, 50 μM DiFMUP; single assay or mean of multiple assays; read-out: Biological Example 1 IC50. The method, then:
A fluorescence intensity kinetic assay was configured for full-length SHP2 that monitors the amount of 6,8-difluoro-7-hydroxy-4-methylcoumarin (“DiFMU”) formed upon hydrolysis of 6,8-difluoro-4-methylumbelliferyl phosphate (“DiFMUP”) by SHP2. […] Low control wells lacked enzyme. The assays were initiated by the addition of a mixture of SHP2 and the activating peptide, and following a 15 second mix on an orbital shaker, were read in kinetic mode for 15 minutes (30 seconds/cycle) at ambient temperature on a PerkinElmer EnVision microplate reader (kEx=355 nm, kEm=460 nm). Initial velocities (slopes of the tangents at t=0) were estimated from exponential fits to the slightly nonlinear progress curves and then were converted to percent of control (“POC”) using the following equation:
[formula] • Where: xmax Average Uninhibited Controls • Xmin Average Background A 4-parameter logistic model was the fit to the POC data for each compound. From that fit, the IC50 was estimated and is defined as the concentration of compound at which the curve crosses 50 POC.

Assay [1] relates to ERK1/2 (Thr202/Tyr204) phosphorylation in KYSE520 cells. As to the kind of experiment: Cellular Phospho-p44/42 MAPK (Erk1/2) (Thr202/Tyr204) assay, In-Cell Western. The assay is classed as cell-based. The following applies: Homo sapiens, KYSE-520; KYSE520 cells, 1 hour incubation, pERK signal normalized to GAPDH; single assay or mean of multiple assays; read-out: Biological Example 2 IC50. On the procedure: Inhibition of ERK1/2 (Thr202/Tyr204) phosphorylation was determined by the following cellular assay, which comprises incubating cells with a compound for 1 hour and quantifying pERK signal by In-Cell Western on fixed cells and normalizing to GAPDH signal. KYSE520 cells were obtained from DSMZ and grown in RPMI supplemented with 10% fetal bovine serum, penicillin/streptomycin, 2 mM L-alanyl-L-glutamine dipeptide in 0.85% NaCl (Glutamax™), non-essential amino acids, and sodium pyruvate. Cells were plated in 96-well plates at 30,000 cells/well and allowed to attach overnight at 37° C./5% CO2. Cells were treated with compounds prepared as a 10-point, 1:3 dilution series (range: 20 μM-1 nM), with a final DMSO concentration of 0.5%. After 1 hour incubation, cells were fixed in 3.7% formaldehyde in Dulbecco's phosphate-buffered saline (“dPBS”) at room temperature for 20 minutes. Cells were then washed with dPBS and permeabilized in 100% MeOH at room temperature for 10 minutes. Following permeabilization, cells were washed in dPBS and incubated in LI-COR Blocking Buffer (LI-COR Biosciences, Cat #927-40000) for 1 hour or longer. Plates were then incubated with an antibody specific for the MEK-dependent ERK1/2 phosphorylation sites, threonine 202 and tyrosine 204 (Cell Signaling Technologies; Cat #9101), downstream of SHP2 in the MAP kinase signal transduction pathway, as well as GAPDH (Millipore; Cat #MAB374). pErk1/2 (Thr202/Tyr204) antibody was diluted in LI-COR blocking buffer containing 0.05% polysorbate-20 (Tween-20) at 1:250; GAPDH was diluted at 1:2,500. The plates were incubated overnight at 4° C. After washing with PBS/0.05% Tween-20, the cells were incubated with fluorescently-labeled secondary antibodies (Anti-rabbit-Alexa Flour680, Invitrogen Cat #A21109; Anti-mouse-IRDye800CW, Li-cor Bioscieces Cat #926-32210, both at 1:1000 dilution) for 1 hour. Cells were then washed, as above, and analyzed for fluorescence at both 680 nm and 800 nm wavelengths using the Aerius Infrared Imaging System (LI-COR Biosciences, Model 9250). Phosphorylated Erk1/2 ([…]) signal was normalized to GAPDH signal for each well. IC50 values were calculated from the normalized values using a 4-parameter fit in BioAssay software. The reported IC50 in Table 2 may be from a single assay or the mean of multiple assays.

For orientation: IC50 means the midpoint of a concentration-inhibition curve. In the case of `N[C@@H]1c2ccccc2CC12CCN(c1ncc(Sc3ccnc4[nH]ccc34)nn1)CC2` [Example 30, (S)-1′-(6-((1H-pyrrolo[2,3-b]pyridin-4-yl)thio)-1,2,4-triazin-3-yl)-1,3-dihydrospiro[indene-2,4′-piperidin]-1-amine], the IC50 amounted to 22 nM at full-length SHP2 and 2 nM in assay [1].

With `N[C@@H]1c2ccccc2CC12CCN(c1ncc(-c3ccccc3Cl)nn1)CC2` [Example 31, (S)-1′-(6-(2-chlorophenyl)-1,2,4-triazin-3-yl)-1,3-dihydrospiro[indene-2,4′-piperidin]-1-amine], the IC50 was determined as 23 nM on full-length SHP2 and 424 nM in assay [1].

Consider `N[C@@H]1c2ccccc2CC12CCN(c1ncc(Sc3ccccc3)nn1)CC2` [Example 32, (S)-1′-(6-(phenylthio)-1,2,4-triazin-3-yl)-1,3-dihydrospiro[indene-2,4′-piperidin]-1-amine], for which the IC50 was 5 nM on full-length SHP2 and 14 nM in assay [1].

As to `N[C@@H]1c2ccccc2CC12CCN(c1ncc(Cc3ccccc3)nn1)CC2` [Example 33, (S)-1′-(6-benzyl-1,2,4-triazin-3-yl)-1,3-dihydrospiro[indene-2,4′-piperidin]-1-amine], the IC50 on full-length SHP2 was 98 nM; in assay [1] it was 366 nM.

Consider `Nc1c(Cl)c(Sc2cnc(N3CCC4(CC3)Cc3ccccc3[C@H]4N)nn2)cc[n+]1[O-]` [Example 34, (S)-2-amino-4-((3-(1-amino-1,3-dihydrospiro[indene-2,4′-piperidin]-1′-yl)-1,2,4-triazin-6-yl)thio)-3-chloropyridine 1-oxide], for which the IC50 on full-length SHP2 worked out at 79 nM; in assay [1], 9 nM.

On to `Nc1nccc(Sc2cnc(N3CCC4(CC3)Cc3c(Cl)cccc3[C@H]4N)nn2)c1Cl` [Example 35, (S)-1′-(6-((2-amino-3-chloropyridin-4-yl)thio)-1,2,4-triazin-3-yl)-4-chloro-1,3-dihydrospiro[indene-2,4′-piperidin]-1-amine], for which the IC50 on full-length SHP2 came out at 26 nM; in assay [1], 9 nM.

`CC(C)(C#N)CNc1nccc(Sc2cnc(N3CCC4(CC3)Cc3ccccc3[C@H]4N)nn2)c1Cl` [Example 36, (S)-3-((4-((3-(1-amino-1,3-dihydrospiro[indene-2,4′-piperidin]-1′-yl)-1,2,4-triazin-6-yl)thio)-3-chloropyridin-2-yl)amino)-2,2-dimethylpropanenitrile]: the results for the IC50 (on full-length SHP2; in assay [1]) were 110 nM and 17 nM, respectively.

Take `N[C@@H]1c2ccccc2CC12CCN(c1ncc(Sc3cccc4c3CC4)nn1)CC2` [Example 37, (S)-1′-(6-(bicyclo[4.2.0]octa-1(6),2,4-trien-2-ylthio)-1,2,4-triazin-3-yl)-1,3-dihydrospiro[indene-2,4′-piperidin]-1-amine]: the IC50 was 11 nM on full-length SHP2 and 31 nM in assay [1].

As to `N[C@@H]1c2cccnc2CC12CCN(c1ncc(Sc3cccc4c3CC4)nn1)CC2` [Example 38, (S)-1′-(6-(bicyclo[4.2.0]octa-1(6),2,4-trien-2-ylthio)-1,2,4-triazin-3-yl)-5,7-dihydrospiro[cyclopenta[b]pyridine-6,4′-piperidin]-5-amine], the values for the IC50 (at full-length SHP2; in assay [1]) were 13 nM and 41 nM, respectively.

Regarding `CNc1nccc(Sc2cnc(N3CCC4(CC3)Cc3ncccc3[C@H]4N)nn2)c1Cl` [Example 39, (S)-1′-(6-((3-chloro-2-(methylamino)pyridin-4-yl)thio)-1,2,4-triazin-3-yl)-5,7-dihydrospiro[cyclopenta[b]pyridine-6,4′-piperidin]-5-amine], the values for the IC50 (at full-length SHP2; in assay [1]) were 78 nM and 11 nM, respectively.

On to `Cc1ccc2c(c1)[C@@H](N)C1(CCN(c3ncc(Sc4ccnc(N)c4Cl)nn3)CC1)C2` [Example 45, (S)-1′-(6-((2-amino-3-chloropyridin-4-yl)thio)-1,2,4-triazin-3-yl)-6-methyl-1,3-dihydrospiro[indene-2,4′-piperidin]-1-amine], for which the IC50 on full-length SHP2 was 14 nM; in assay [1], 2 nM.

As to `Nc1nccc(Sc2cnc(N3CCC4(CC3)Cc3cc(Cl)ccc3[C@@H]4N)nn2)c1Cl` [Example 46, (R)-1′-(6-((2-amino-3-chloropyridin-4-yl)thio)-1,2,4-triazin-3-yl)-5-chloro-1,3-dihydrospiro[indene-2,4′-piperidin]-1-amine], the IC50 at full-length SHP2 was 91 nM; in assay [1], 430 nM.

`Cc1ccc2c(c1)[C@H](N)C1(CCN(c3ncc(Sc4ccnc(N)c4Cl)nn3)CC1)C2` [Example 47, (R)-1′-(6-((2-amino-3-chloropyridin-4-yl)thio)-1,2,4-triazin-3-yl)-6-methyl-1,3-dihydrospiro[indene-2,4′-piperidin]-1-amine]: the IC50 at full-length SHP2 was 38 nM; in assay [1], 56 nM.

For the compound `Cc1cccc2c1CC1(CCN(c3ncc(Sc4ccnc(N)c4Cl)nn3)CC1)[C@@H]2N` [Example 48, (S)-1′-(6-((2-amino-3-chloropyridin-4-yl)thio)-1,2,4-triazin-3-yl)-4-methyl-1,3-dihydrospiro[indene-2,4′-piperidin]-1-amine], the IC50 stood at 30 nM on full-length SHP2 and 5 nM in assay [1].

As for `Cc1cccc2c1CC1(CCN(c3ncc(Sc4ccnc(N)c4Cl)nn3)CC1)[C@H]2N` [Example 49, (R)-1′-(6-((2-amino-3-chloropyridin-4-yl)thio)-1,2,4-triazin-3-yl)-4-methyl-1,3-dihydrospiro[indene-2,4′-piperidin]-1-amine], the figures for the IC50 (at full-length SHP2; in assay [1]) were 157 nM and 126 nM, respectively.

As to `Cc1nccc(Sc2cnc(N3CCC4(CC3)Cc3ccccc3[C@H]4N)nn2)c1C` [Example 50, (S)-1′-(6-((2,3-dimethylpyridin-4-yl)thio)-1,2,4-triazin-3-yl)-1,3-dihydrospiro[indene-2,4′-piperidin]-1-amine], the IC50 on full-length SHP2 was 44 nM; in assay [1] it was 6 nM.

As for `N[C@@H]1c2ccccc2CC12CCN(c1ncc(Sc3ccnc(C(F)(F)F)c3Cl)nn1)CC2` [Example 51, (S)-1′-(6-((3-chloro-2-(trifluoromethyl)pyridin-4-yl)thio)-1,2,4-triazin-3-yl)-1,3-dihydrospiro[indene-2,4′-piperidin]-1-amine], the IC50 on full-length SHP2 was found to be 93 nM; in assay [1], 78 nM.

On to `Nc1nccc(Sc2cnc(N3CCC4(CC3)Cc3ccccc3[C@H]4N)nn2)c1Br` [Example 52, (S)-1′-(6-((2-amino-3-bromopyridin-4-yl)thio)-1,2,4-triazin-3-yl)-1,3-dihydrospiro[indene-2,4′-piperidin]-1-amine], for which the IC50 was determined as 27 nM at full-length SHP2 and 2 nM in assay [1].
